PubChem BioAssay (NCI)
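1) Cells in 96-well plates. 2) Compound, 48 h, 5 concentrations. 3) Linear interpolation between surrounding doses. 4) Unreached endpoint = highest concentration. The concentration for full growth arrest is given as TGI.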

Assays:
Test in all cases: NCI-60 cell line screen, 48 h
DLD-1 colon = system: DLD-1 colon
CCRF-CEM leukemia = system: CCRF-CEM leukemia
RXF 393 renal = system: RXF 393 renal
TK-10 renal = system: TK-10 renal
SF-539 CNS = system: SF-539 CNS
HCC-2998 colon = system: HCC-2998 colon
UACC-62 melanoma = system: UACC-62 melanoma
U251 CNS = system: U251 CNS
SW-620 colon = system: SW-620 colon
EKVX NSCLC = system: EKVX NSCLC
SK-MEL-5 melanoma = system: SK-MEL-5 melanoma
DMS 273 small cell lung = system: DMS 273 small cell lung
OVCAR-8 ovarian = system: OVCAR-8 ovarian
KM12 colon = system: KM12 colon
786-0 renal = system: 786-0 renal
LXFL 529 NSCLC = system: LXFL 529 NSCLC
SK-MEL-28 melanoma = system: SK-MEL-28 melanoma
NCI-H460 lung = system: NCI-H460 lung
SNB-78 CNS = system: SNB-78 CNS
NCI-H23 lung = system: NCI-H23 lung
LOX IMVI melanoma = system: LOX IMVI melanoma
DMS 114 small cell lung = system: DMS 114 small cell lung
SN12C renal = system: SN12C renal
HCT-15 colon = system: HCT-15 colon
MOLT-4 leukemia = system: MOLT-4 leukemia
RXF-631 renal = system: RXF-631 renal
CAKI-1 renal = system: CAKI-1 renal
M19-MEL melanoma = system: M19-MEL melanoma
NCI-H522 lung = system: NCI-H522 lung
K-562 leukemia = system: K-562 leukemia
IGROV1 ovarian = system: IGROV1 ovarian
UACC-257 melanoma = system: UACC-257 melanoma
A549 NSCLC = system: A549 NSCLC
OVCAR-3 ovarian = system: OVCAR-3 ovarian
SNB-75 CNS = system: SNB-75 CNS
COLO 205 colon = system: COLO 205 colon
SF-295 CNS = system: SF-295 CNS
A498 renal = system: A498 renal
HT29 colon = system: HT29 colon
RPMI-8226 leukemia = system: RPMI-8226 leukemia
ACHN renal = system: ACHN renal
SK-OV-3 ovarian = system: SK-OV-3 ovarian
HOP-92 NSCLC = system: HOP-92 NSCLC
HCT-116 colon = system: HCT-116 colon
UO-31 renal = system: UO-31 renal
NCI-H226 lung = system: NCI-H226 lung
HOP-18 NSCLC = system: HOP-18 NSCLC
M14 melanoma = system: M14 melanoma
HL-60(TB) leukemia = system: HL-60(TB) leukemia
PC-3 prostate = system: PC-3 prostate
SR leukemia = system: SR leukemia
MCF7 breast = system: MCF7 breast
OVCAR-5 ovarian = system: OVCAR-5 ovarian
DU-145 prostate = system: DU-145 prostate
MDA-MB-435 = system: MDA-MB-435
KM20L2 colon = system: KM20L2 colon
SNB-19 CNS = system: SNB-19 CNS
SF-268 CNS = system: SF-268 CNS
NCI/ADR-RES ovarian = system: NCI/ADR-RES ovarian
MDA-MB-231 breast = system: MDA-MB-231 breast
MALME-3M melanoma = system: MALME-3M melanoma
OVCAR-4 ovarian = system: OVCAR-4 ovarian
HOP-62 NSCLC = system: HOP-62 NSCLC
XF 498 CNS = system: XF 498 CNS
HS 578T breast = system: HS 578T breast
SK-MEL-2 melanoma = system: SK-MEL-2 melanoma
MDA-N = system: MDA-N
BT-549 breast = system: BT-549 breast
T-47D breast = system: T-47D breast

## CN[C@@H](C)[C@@H](NC)c1ccccc1
DLD-1 colon
  TGI: > 100 µM
CCRF-CEM leukemia
  TGI: > 100 µM
RXF 393 renal
  TGI: > 100 µM
TK-10 renal
  TGI: > 100 µM
SF-539 CNS
  TGI: > 100 µM
HCC-2998 colon
  TGI: > 100 µM
UACC-62 melanoma
  TGI: > 100 µM
U251 CNS
  TGI: 2.9 µM
SW-620 colon
  TGI: > 100 µM
EKVX NSCLC
  TGI: > 100 µM
SK-MEL-5 melanoma
  TGI: > 100 µM
DMS 273 small cell lung
  TGI: > 100 µM
OVCAR-8 ovarian
  TGI: > 100 µM
KM12 colon
  TGI: > 100 µM
786-0 renal
  TGI: > 100 µM
LXFL 529 NSCLC
  TGI: > 100 µM
SK-MEL-28 melanoma
  TGI: > 100 µM
NCI-H460 lung
  TGI: > 100 µM
SNB-78 CNS
  TGI: > 100 µM
NCI-H23 lung
  TGI: > 100 µM
LOX IMVI melanoma
  TGI: > 100 µM
DMS 114 small cell lung
  TGI: > 100 µM
SN12C renal
  TGI: > 100 µM
HCT-15 colon
  TGI: > 100 µM
MOLT-4 leukemia
  TGI: > 100 µM
RXF-631 renal
  TGI: > 100 µM
CAKI-1 renal
  TGI: > 100 µM
M19-MEL melanoma
  TGI: > 100 µM
NCI-H522 lung
  TGI: > 100 µM
K-562 leukemia
  TGI: > 100 µM
IGROV1 ovarian
  TGI: > 100 µM
UACC-257 melanoma
  TGI: > 100 µM
A549 NSCLC
  TGI: > 100 µM
OVCAR-3 ovarian
  TGI: > 100 µM
SNB-75 CNS
  TGI: > 100 µM
COLO 205 colon
  TGI: > 100 µM
SF-295 CNS
  TGI: > 100 µM
A498 renal
  TGI: > 100 µM
HT29 colon
  TGI: > 100 µM
RPMI-8226 leukemia
  TGI: > 100 µM
ACHN renal
  TGI: > 100 µM
SK-OV-3 ovarian
  TGI: > 100 µM
HOP-92 NSCLC
  TGI: > 100 µM
HCT-116 colon
  TGI: > 100 µM
UO-31 renal
  TGI: > 100 µM
NCI-H226 lung
  TGI: > 100 µM
HOP-18 NSCLC
  TGI: > 100 µM
M14 melanoma
  TGI: > 100 µM

## COc1c(OC(C)=O)c(OC(C)=O)cc2c1-c1ccc(SC)c(=O)cc1C(NC(C)=O)CC2 (stereo not given)
DLD-1 colon
  TGI: > 100 µM
HL-60(TB) leukemia
  TGI: 0.61 µM
CCRF-CEM leukemia
  TGI: > 100 µM
RXF 393 renal
  TGI: > 86.7 µM
PC-3 prostate
  TGI: > 100 µM
SR leukemia
  TGI: > 100 µM
TK-10 renal
  TGI: > 96.3 µM
SF-539 CNS
  TGI: 0.846 µM
HCC-2998 colon
  TGI: > 27.6 µM
UACC-62 melanoma
  TGI: > 74.9 µM
U251 CNS
  TGI: > 42.2 µM
SW-620 colon
  TGI: > 100 µM
EKVX NSCLC
  TGI: > 100 µM
SK-MEL-5 melanoma
  TGI: 0.794 µM
MCF7 breast
  TGI: > 100 µM
DMS 273 small cell lung
  TGI: > 100 µM
OVCAR-8 ovarian
  TGI: > 100 µM
OVCAR-5 ovarian
  TGI: > 100 µM
KM12 colon
  TGI: > 100 µM
786-0 renal
  TGI: > 100 µM
DU-145 prostate
  TGI: 4.12 µM
LXFL 529 NSCLC
  TGI: > 100 µM
MDA-MB-435
  TGI: 0.632 µM
SK-MEL-28 melanoma
  TGI: > 100 µM
KM20L2 colon
  TGI: 6.84 µM
NCI-H460 lung
  TGI: > 56.1 µM
SNB-78 CNS
  TGI: > 100 µM
NCI-H23 lung
  TGI: 28.7 µM
SNB-19 CNS
  TGI: > 100 µM
LOX IMVI melanoma
  TGI: > 100 µM
SF-268 CNS
  TGI: > 100 µM
SN12C renal
  TGI: > 100 µM
NCI/ADR-RES ovarian
  TGI: > 100 µM
HCT-15 colon
  TGI: > 97.5 µM
MOLT-4 leukemia
  TGI: > 100 µM
CAKI-1 renal
  TGI: > 87.1 µM
M19-MEL melanoma
  TGI: > 100 µM
NCI-H522 lung
  TGI: 0.576 µM
K-562 leukemia
  TGI: > 43.8 µM
IGROV1 ovarian
  TGI: > 100 µM
MDA-MB-231 breast
  TGI: > 100 µM
UACC-257 melanoma
  TGI: > 100 µM
MALME-3M melanoma
  TGI: > 100 µM
A549 NSCLC
  TGI: > 100 µM
OVCAR-4 ovarian
  TGI: > 100 µM
OVCAR-3 ovarian
  TGI: > 100 µM
HOP-62 NSCLC
  TGI: > 100 µM
XF 498 CNS
  TGI: > 28.8 µM
SNB-75 CNS
  TGI: 15.3 µM
COLO 205 colon
  TGI: 4.32 µM
SF-295 CNS
  TGI: 21.3 µM
HS 578T breast
  TGI: 0.701 µM
A498 renal
  TGI: 56 µM
SK-MEL-2 melanoma
  TGI: > 100 µM
HT29 colon
  TGI: > 100 µM
MDA-N
  TGI: 0.576 µM
RPMI-8226 leukemia
  TGI: > 100 µM
BT-549 breast
  TGI: > 100 µM
ACHN renal
  TGI: > 100 µM
SK-OV-3 ovarian
  TGI: > 44 µM
HOP-92 NSCLC
  TGI: > 100 µM
HCT-116 colon
  TGI: > 100 µM
UO-31 renal
  TGI: > 100 µM
NCI-H226 lung
  TGI: 33.1 µM
HOP-18 NSCLC
  TGI: > 100 µM
M14 melanoma
  TGI: > 100 µM
T-47D breast
  TGI: > 100 µM
